From US10301272B2, “Carboxamide or sulfonamide substituted thiazoles and related derivatives as modulators for the orphan nuclear receptor ROR[γ]” (Phenex Pharmaceuticals AG, priority 2012, dated 2019)
Where two headings read alike, the source gives them in different places.

Assays:
RORγ = RORγ (Homo sapiens, UniProt P51449); experiment: RORγ Gal4 Reporter Gene Assay; type: cell-based; details: for IC50: 293T cells
Procedure, shortened: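 Cells at 5×10^5/well were transfected with RORγ fragments fused to the GAL4 DNA-binding domain (CMV promoter), a 5×GAL4-site firefly luciferase reporter and CMV-Renilla luciferase for normalization. About 4 h later serum-free MEM and compound were added (vehicle ≤0.1%). Cultures at 37 °C, 5% CO2; at least triplicates.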

[1] = target: RORγ ligand binding domain (LBD) (Homo sapiens (Human), UniProt P51449); experiment: TR-FRET Activity Assay (ligand sensing assay, LANCE); details: TR-FRET, interaction of RORγ-LBD with coactivator peptide
Chain of RORγ ligand binding domain (LBD) (P51449 269-508): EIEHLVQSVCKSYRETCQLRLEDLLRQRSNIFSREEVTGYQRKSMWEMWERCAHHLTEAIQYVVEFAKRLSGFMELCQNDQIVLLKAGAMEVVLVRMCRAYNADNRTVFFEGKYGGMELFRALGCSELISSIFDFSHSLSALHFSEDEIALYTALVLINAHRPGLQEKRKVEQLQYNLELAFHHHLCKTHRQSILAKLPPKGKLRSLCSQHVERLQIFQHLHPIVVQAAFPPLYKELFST
Excerpt: The ligand-binding domain (LBD) of RORγ was expressed as fusion protein with GST in BL-21 (BL3) cells using the vector pDEST15. Cells were lysed by lysozyme-treatment and sonication, and the fusion proteins purified over glutathione sepharose (Pharmacia) according to the manufacturers instructions. For screening of compounds for their influence on the RORγ-peptide interaction, the LANCE technology (Perkin Elmer) was applied. This method relies on the binding dependent energy transfer from a donor to an acceptor fluorophor attached to the binding partner of interest. For ease of handling and reduction of background from compound fluorescence LANCE technology makes use of generic fluorophore labels and time resolved detection assays were done in a final volume of 25 μL in a 384 well plate, in a Tris-based buffer system (20 mM Tris-HCl pH 6.8; 60 mM KCl, 1 mM DTT; 5 mM MgCl2; 35 ng/μL BSA), containing 20-60 ng/well recombinantly expressed RORγ-LBD fused to GST, 200-600 nM N-terminally biotinylated peptide, 200 ng/well Streptavidin-xlAPC conjugate (Prozyme) and 6-10 ng/well Eu W1024-antiGST (Perkin Elmer). DMSO content of the samples was kept at 1%.
After generation of the Tris-based buffer system, the potentially RORγ modulating ligands were diluted. […] The LANCE signal was detected by a Perkin Elmer EnVision™ Multilabel Counter. […] Ligands that promote the complex formation induce a concentration-dependent increase in time-resolved fluorescent signal.
Y is the response. Y starts at Bottom and goes to Top with a sigmoidal shape.
This is identical to the “four parameter logistic equation”. The IC50 values are calculated using this equation.

[2] = firefly (FF) luciferase, read-out: pIC50 (FF) (converted)
[3] = renilla normalised (RENnorm) luciferase, read-out: pIC50 (REN) (converted)

Chain of RORγ (P51449 whole entry, looked up, the tested form may be a part): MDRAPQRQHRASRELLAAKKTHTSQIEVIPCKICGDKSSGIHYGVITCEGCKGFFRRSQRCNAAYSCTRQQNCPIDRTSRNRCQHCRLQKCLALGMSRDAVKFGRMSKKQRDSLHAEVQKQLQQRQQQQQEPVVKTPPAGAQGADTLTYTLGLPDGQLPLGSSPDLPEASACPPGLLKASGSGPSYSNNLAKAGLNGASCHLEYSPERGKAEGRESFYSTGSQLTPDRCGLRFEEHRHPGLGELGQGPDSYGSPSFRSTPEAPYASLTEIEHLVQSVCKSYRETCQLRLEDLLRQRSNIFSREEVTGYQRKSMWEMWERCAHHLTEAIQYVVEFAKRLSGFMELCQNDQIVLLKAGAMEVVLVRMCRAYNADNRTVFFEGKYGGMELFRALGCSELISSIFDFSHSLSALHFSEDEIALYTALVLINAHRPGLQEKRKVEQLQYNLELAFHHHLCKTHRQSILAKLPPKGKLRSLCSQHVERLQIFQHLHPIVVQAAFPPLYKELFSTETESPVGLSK

| SMILES | pIC50 (FF) (RORγ) | pIC50 (REN) (RORγ) | pIC50 (FRET) [1] | IC50 (RORγ; [2]) [µM] | IC50 (RORγ; [3]) [µM] |
| --- | --- | --- | --- | --- | --- |
| CCS(=O)(=O)c1ccc(CC(=O)Nc2nc(CC3CCCCC3)c(-c3ccc(S(=O)(=O)NC(C)(C)C)c(C(F)(F)F)c3)s2)cc1 [Example 200/1] | 7.1/7.4/7.8 | 7.1/7.4/7.8 | 7.1/7.4/7.8 |  |  |
| CC(C)(C)NS(=O)(=O)c1ccc(-c2sc(C(=O)NC3CCS(=O)(=O)CC3)nc2C2CCCCC2)c2ccccc12 [300/2] | 6.9/8.2/8.2 | 6.9/8.2/8.2 | 6.9/8.2/8.2 |  |  |
| CC(C)(C)NS(=O)(=O)c1ccc(-c2sc(C(=O)N[C@H]3C[C@H](C(=O)O)C3)nc2CC2CCCCC2)cc1C(C)(C)O [7/17] | 6.5/8.0/8.0 | 6.5/8.0/8.0 | 6.5/8.0/8.0 |  |  |
| CC(C)(C)NS(=O)(=O)c1ccc(-c2sc(C(=O)NC3COC3)nc2CC2CCCCC2)c(Cl)c1Cl [6/34] | 7.2/8.5/8.5 | 7.2/8.5/8.5 | 7.2/8.5/8.5 |  |  |
| CC(C)(C)c1cc(-c2oc(C(=O)NC3CCOCC3)nc2CC2CCCCC2)cc(C2(C)CC2)c1 [100/18] | 6.9/6.9/6.9 | 6.9/6.9/6.9 | 6.9/6.9/6.9 |  |  |
| CC(=O)NS(=O)(=O)c1nc(-c2cc(C(C)(C)C)cc(C(C)(C)C)c2)c(CC2CCCCC2)s1 [Example 3, N-((5-(Cyclohexylmethyl)-4-(3,5-di-tert-butylphenyl)thiazol-2-yl)sulfonyl)acetamide] |  |  | 5.1 | > 20 | > 20 |
| O=C(c1nc(CC2CCCCC2)c(-c2ccc(S(=O)(=O)NC3CS(=O)(=O)C3)c3ccccc23)s1)N1CC2(CCS(=O)(=O)CC2)C1 [14/3] | 6.6/6.4/6.4 | 6.6/6.4/6.4 | 6.6/6.4/6.4 |  |  |
| CC(C)(O)CNC(=O)c1nc(CC2CCCCC2)c(-c2ccc(S(=O)(=O)NC3(C)COC3)c3ccccc23)s1 [8/5] | 6.4/8.5/8.7 | 6.4/8.5/8.7 | 6.4/8.5/8.7 |  |  |
| CC(C)COc1cc(-c2sc(C(=O)N[C@H]3C[C@H](C(=O)O)C3)nc2CC2CCCCC2)cc(C(C)(C)C)n1 [7/11] | 5.9/7.4/7.4 | 5.9/7.4/7.4 | 5.9/7.4/7.4 |  |  |
| CC(C)(C)c1cc(-c2oc(C(N)=O)nc2CC2CCCCC2)cc(C(C)(C)C)c1 [Example 100, 4-(Cyclohexylmethyl)-5-(3,5-di-tert-butylphenyl)oxazole-2-carboxamide] | 6.6/5.8/5.8 | 6.6/5.8/5.8 | 6.6/5.8/5.8 |  |  |
| CC(C)(C)c1cc(-c2nc(S(N)(=O)=O)sc2CC2CCCCC2)cc(C(C)(C)C)c1 [Example 2, 5-(Cyclohexylmethyl)-4-(3,5-di-tert-butylphenyl)thiazole-2-sulfonamide] | 5.9/6.1/6.0 | 5.9/6.1/6.0 | 5.9/6.1/6.0 |  |  |
| C[C@H](NC(=O)c1cc(-c2sc(C(=O)NCC(C)(C)O)nc2CC2CCCCC2)cc(C2(C)CC2)c1)C(F)(F)F [8/6] | 7.0/8.2/8.3 | 7.0/8.2/8.3 | 7.0/8.2/8.3 |  |  |
| CC(C)(O)CNC(=O)c1nc(CC2CCCCC2)c(-c2ncc(S(=O)(=O)NC(C)(C)C)c3ccccc23)s1 [19/6] | 6.4/7.7/7.7 | 6.4/7.7/7.7 | 6.4/7.7/7.7 |  |  |
| CC(C)(C)NS(=O)(=O)c1ccc(-c2oc(C(=O)N[C@H]3C[C@H](C(=O)O)C3)nc2CC2CCCCC2)c(Cl)c1Cl [100/17] | 6.1/7.1/7.0 | 6.1/7.1/7.0 | 6.1/7.1/7.0 |  |  |
| CC(C)(CO)NS(=O)(=O)c1ccc(-c2sc(C(=O)N3CC4(CCS(=O)(=O)CC4)C3)nc2CC2CCCCC2)c2ccccc12 [Example 14/1] | 6.2/7.1/7.1 | 6.2/7.1/7.1 | 6.2/7.1/7.1 |  |  |
| CC(C)(C)NS(=O)(=O)c1ccc(-c2oc(C(=O)NC3CCOCC3)nc2CC2CCCCC2)cc1C(C)(C)C [Example 100/1] | 5.9/6.3/6.3 | 5.9/6.3/6.3 | 5.9/6.3/6.3 |  |  |
| CC(C)(C)NS(=O)(=O)c1ccc(-c2sc(C(=O)N[C@H]3C[C@H](S(C)(=O)=O)C3)nc2CC2CCCCC2)c(Cl)c1Cl [6/41] | 7.3/8.0/8.2 | 7.3/8.0/8.2 | 7.3/8.0/8.2 |  |  |
| CNC(=O)C(C)(C)CCNC(=O)c1nc(CC2CCCCC2)c(-c2ccc(S(=O)(=O)NC(C)(C)C)c(C(F)(F)F)c2)s1 [Example 10/1] | 6.2/7.0/7.1 | 6.2/7.0/7.1 | 6.2/7.0/7.1 |  |  |
| CC(C)(C)c1cc(-c2sc(C(=O)NC3CCOCC3)nc2CC2CCCCC2)cc(C2(C)CC2)c1 [Example 8, 5-(3-(tert-Butyl)-5-(1-methylcyclopropyl)phenyl)-4-(cyclohexylmethyl)-N-(tetrahydro-2H-pyran-4-yl)thiazole-2-carboxamide] | 7.0/7.3/7.5 | 7.0/7.3/7.5 | 7.0/7.3/7.5 |  |  |
| CC(C)(C)c1cc(-c2cc(C(N)=O)ccc2CC2CCCCC2)cc(C(C)(C)C)c1 [Example 208, 3′,5′-Di-tert-butyl-6-(cyclohexylmethyl)-[1,1′-biphenyl]-3-carboxamide] | 6.5/6.3/6.3 | 6.5/6.3/6.3 | 6.5/6.3/6.3 |  |  |
| CC(C)(C)NS(=O)(=O)c1ccc(-c2sc(C(=O)NC3C[S+]([O-])C3)nc2CC2CCCCC2)cc1C(C)(C)O (stereo not drawn) [15/2] | 6.6/7.3/7.3 | 6.6/7.3/7.3 | 6.6/7.3/7.3 |  |  |
| CC(C)(C)NS(=O)(=O)c1ccc(-c2sc(C(=O)N3CC4CC(C3)O4)nc2CC2CCCCC2)c(Cl)c1Cl [6/44] | 7.4/7.8/8.0 | 7.4/7.8/8.0 | 7.4/7.8/8.0 |  |  |
| CC(C)(C)NS(=O)(=O)c1ccc(-c2sc(C(=O)NCC3(C(=O)O)CCOCC3)nc2CC2CCCCC2)c(Cl)c1Cl [6/36] | 6.3/7.4/7.4 | 6.3/7.4/7.4 | 6.3/7.4/7.4 |  |  |
| CC(C)(C)NS(=O)(=O)c1ccc(-c2sc(C(=O)NCC3(O)CCOCC3)nc2CC2CCCCC2)cc1C(C)(C)O [6/27] | 6.7/7.7/7.7 | 6.7/7.7/7.7 | 6.7/7.7/7.7 |  |  |
| CC(C)(C)NS(=O)(=O)c1ccc(-c2nc(C(=O)NC3CCS(=O)(=O)CC3)oc2CC2CCCCC2)c2ccccc12 [Example 103, 4-(4-(N-(tert-Butyl)sulfamoyl)naphthalen-1-yl)-5-(cyclohexylmethyl)-N-(1,1-dioxidotetrahydro-2H-thiopyran-4-yl)oxazole-2-carboxamide] | 6.3/7.2/7.3 | 6.3/7.2/7.3 | 6.3/7.2/7.3 |  |  |
| CC(C)(O)CNC(=O)c1nc(CC2CCCCC2)c(-c2ccc(S(N)(=O)=O)c(Cl)c2Cl)s1 [Example 17, 4-(Cyclohexylmethyl)-5-(2,3-dichloro-4-sulfamoylphenyl)-N-(2-hydroxy-2-methylpropyl)thiazole-2-carboxamide] |  |  | 5.0 | > 20 | > 20 |
| CC(C)(C)c1cc(-c2nc(C(=O)NC3COC3)ncc2CC2CCCCC2)cc(C(C)(C)C)c1 [Example 207, 5-(Cyclohexylmethyl)-4-(3,5-di-tert-butylphenyl)-N-(oxetan-3-yl)pyrimidine-2-carboxamide] | 5.4/6.4/6.5 | 5.4/6.4/6.5 | 5.4/6.4/6.5 |  |  |
